According to patent US5360803A, “Composition and method for treating cancer” (Dan Farber Cancer Institute, priority 1992, dated 1994):
Read-outs that look alike come from different tables or passages of the source.

Columns and labels:
Format in all cases: cell-based
[1] = system: CX-1 cells; experiment: selective killing assay, colony number reduced to 50% of control, human colon carcinoma cell line CX-1; conditions: for IC50 / CX-1 (IC50): human colon carcinoma, 24 hours treatment, colony count after 7 to 10 days;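 as to all read-outs here: colonies stained with crystal violet and counted, control cells given medium alone, exposure at 37 °C, normal monkey kidney epithelial CV-1 cells as the non-cancer comparator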
Description: Human colon carcinoma cell line CX-1 or normal monkey kidney epithelial cell line CV-1 was chosen as representatives of cancer cells and normal cells, respectively. […] CX-1 cells (2,000 cells/well) and CV-1 cells (1,000 cells/well) were plated in 24-well plastic culture plates. […] The control received culture media only. Cells were treated with compounds of General Formulas (I) to (V) at 37° C. for 24 hours. After rinsing with fresh culture medium three times, the cells were further incubated at 37° C. for 7 to 10 days. Cell colonies were fixed and stained with 2% crystal violet in 70% ethanol for 10 minutes and rinsed in water. […] The selectivity is defined as the ratio of IC50 for CV-1 and IC50 for CX-1.

[2] = system: CV-1 cells; experiment: selective killing assay, colony number reduced to 50% of control, normal monkey kidney epithelial cell line CV-1; conditions: 24 hours treatment; for IC50: Primates
Description: The control received culture media only.

[3] = system: CRL 1420 cells; experiment: colony assay of Example 1 with human pancreatic carcinoma CRL 1420 cell line; conditions: for Selectivity: CV-1/CRL-1420; for IC50: Homo sapiens, 24 h;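 as to all read-outs here: colony formation assay, cells exposed for 24 h then regrown 7 to 10 days without compound, colonies stained with crystal violet, control given medium alone, normal reference CV-1 monkey kidney epithelial cells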
[4] = system: LOX cells; experiment: colony assay of Example 1 with human melanoma LOX cell line; conditions: for Selectivity: CV-1/LOX;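 as to all read-outs here: colony formation assay with 24 h exposure at 37 °C, then 7 to 10 days of regrowth, crystal violet staining of colonies, control wells given medium alone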
[5] = system: EJ cells; experiment: colony assay of Example 1 with human bladder carcinoma EJ cell line; conditions: for Selectivity: CV-1/EJ; for IC50: Homo sapiens, EJ, 24 h, Table IV, human bladder carcinoma, 24 hours treatment;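 as to all read-outs here: colony formation assay with 24 h compound exposure at 37 °C, then 7–10 days drug-free regrowth, colonies stained with crystal violet, controls given medium alone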
[6] = CV-1, Table III, normal monkey kidney epithelial cells, colony count after 7 to 10 days
[7] = Table III, normal monkey kidney epithelial cells, colony count after 7 to 10 days
[8] = Table VII, human pancreatic carcinoma, 24 hours treatment

SMILES	Selectivity (ratio of IC50 for CV-1 and IC50 for CX-1) ([1]; CV-1/CX-1)	IC50 ([1]; Homo sapiens, CX-1, Table III)	IC50 [2, 6]	further results
CCN1C(=CC=c2sc(=Cc3sc4c([n+]3CC)CCCC4)n(CC)c2=O)Oc2ccccc21 [C, reference compound]	50	0.04 µg/mL	2 µg/mL	–
CCn1c(=CC2=[N+](C)c3ccccc3C2(C)C)sc(=C2Sc3ccccc3N2C)c1=O [Compound 17]	167	0.06 µg/mL	10 µg/mL	–
CCn1c(=Cc2cccc[n+]2CC)sc(=C2Sc3ccccc3N2C)c1=O [Compound 18]	4000	0.005 µg/mL	20 µg/mL	–
CCn1c(=Cc2ccc3ccccc3[n+]2CC)sc(=C2Sc3ccccc3N2C)c1=O [Compound 20]	–	0.02 µg/mL	2 µg/mL	Selectivity (ratio of IC50 for CV-1 and IC50 for CX-1) [1]: 100
CCn1c(=Cc2cc[n+](CC)c3ccccc23)sc(=C2Sc3ccccc3N2C)c1=O [Compound 24]	150	0.01 µg/mL	1.5 µg/mL	–
CCn1c(=Cc2oc3ccccc3[n+]2C)sc(=C2Sc3ccccc3N2C)c1=O [Compound 25]	150	–	–	CX-1 (IC50) ([1]; Table III): 0.04 µg/mL; CV-1 (IC50) [2, 7]: 6 µg/mL
CCn1c(=Cc2scc(C)[n+]2CC)sc(=C2Sc3ccccc3N2C)c1=O [Compound 32]	150	0.04 µg/mL	6 µg/mL	–
CCn1c(=Cc2oc3ccccc3[n+]2CC)sc(=C2Sc3ccccc3N2C)c1=O [Compound 34]	267	–	–	CX-1 (IC50) ([1]; Table III): 0.03 µg/mL; CV-1 (IC50) [2, 7]: 8 µg/mL
CCn1c(=Cc2oc3ccc(OC)cc3[n+]2CC)sc(=C2Sc3ccccc3N2C)c1=O [Compound 35]	150	0.04 µg/mL	6 µg/mL	–
CCn1c(=Cc2oc3ccccc3[n+]2CC)sc(=C2Sc3ccccc3N2C)c1=O [Compound 38]	333	–	–	CX-1 (IC50) ([1]; Table III): 0.03 µg/mL; CV-1 (IC50) [2, 7]: 10 µg/mL
CCn1c(=Cc2sc3ccc(Cl)cc3[n+]2CC)sc(=C2Sc3ccccc3N2C)c1=O [Compound 40]	200	0.03 µg/mL	6 µg/mL	–
CC[n+]1c(C=c2sc(=C3Sc4ccccc4N3C)c(=O)n2C2CCCCC2)oc2ccccc21 [Compound 42]	100	0.02 µg/mL	2 µg/mL	–
CN1C(=c2sc(=Cc3oc4ccccc4[n+]3C)n(C)c2=O)Sc2ccccc21 [Compound 46]	100	–	10 µg/mL	IC50 ([1]; CX-1, Table III): 0.1 µg/mL
CCn1c(=Cc2sc3ccccc3[n+]2CC)sc(=C2Sc3ccc(OC)cc3N2C)c1=O [Compound 47]	150	0.04 µg/mL	6 µg/mL	–
CCn1c(=Cc2sc3c4ccccc4ccc3[n+]2CC)sc(=C2Sc3ccc(Cl)cc3N2C)c1=O [Compound 54]	400	0.05 µg/mL	20 µg/mL	–
CCn1c(=Cc2[se]c3ccccc3[n+]2CC)sc(=C2Sc3ccc(Cl)cc3N2C)c1=O [Compound 63]	100	–	20 µg/mL	IC50 ([1]; CX-1, Table III): 0.2 µg/mL
CCn1c(=CC2=[N+](CC)CCS2)sc(=C2Sc3ccc(OC)cc3N2C)c1=O [Compound 65]	100	0.2 µg/mL	20 µg/mL	–
CCn1c(=CC2=[N+](CC)CCS2)sc(=C2Sc3ccc4ccccc4c3N2C)c1=O [Compound 86]	200	0.05 µg/mL	10 µg/mL	–
CCn1c(=Cc2sc3c4ccccc4ccc3[n+]2CC)sc(=C2Sc3ccc4ccccc4c3N2C)c1=O [Compound 91]	500	–	–	CX-1 (IC50) ([1]; Table III): 0.04 µg/mL; CV-1 (IC50) [2, 7]: 20 µg/mL
CCn1c(=Cc2sc3ccc(OC)cc3[n+]2CC)sc(=C2Sc3ccc4ccccc4c3N2C)c1=O [Compound 95]	500	0.04 µg/mL	20 µg/mL	–
CCn1c(=Cc2oc3cc4ccccc4cc3[n+]2CC)sc(=C2Sc3ccc4ccccc4c3N2C)c1=O [Compound 96]	333	0.06 µg/mL	20 µg/mL	–

SMILES	Selectivity (ratio of IC50 for CV-1 and IC50 for CX-1) ([1]; CV-1/CX-1)	IC50 ([1]; Homo sapiens, CX-1, Table III)	IC50 [2, 6]	further results
CCn1c(=Cc2sc3ccccc3[n+]2CC)sc(=C2Sc3c(ccc4ccccc34)N2C)c1=O [Compound 98]	160	0.05 µg/mL	8 µg/mL	–
CCn1c(=Cc2sc3c4ccccc4ccc3[n+]2CC)sc(=C2Sc3c(ccc4ccccc34)N2C)c1=O [Compound 99]	100	0.1 µg/mL	10 µg/mL	–
CCn1c(=Cc2oc3ccccc3[n+]2CC)sc(=C2Oc3ccccc3N2C)c1=O [Compound 104]	180	0.1 µg/mL	18 µg/mL	–
CCn1c(=Cc2sc3ccccc3[n+]2CC)sc(=C2Oc3ccc(OC)cc3N2C)c1=O [Compound 105]	120	0.05 µg/mL	6 µg/mL	–
CCn1c(=Cc2sc3c4ccccc4ccc3[n+]2CC)sc(=C2Oc3ccc4ccccc4c3N2C)c1=O [Compound 115]	120	0.05 µg/mL	6 µg/mL	–
CCn1c(=Cc2oc3ccccc3[n+]2CC)sc(=C2Oc3ccc4ccccc4c3N2C)c1=O [Compound 117]	133	0.03 µg/mL	4 µg/mL	–
CCn1c(=Cc2sc3c4ccccc4ccc3[n+]2CC)sc(=C2SCCN2C)c1=O [Compound 121]	200	0.1 µg/mL	20 µg/mL	–
CCn1c(=Cc2sc3ccccc3[n+]2CC)sc(=C2SC3=C(CCCC3)N2C)c1=O [Compound 129]	100	0.1 µg/mL	10 µg/mL	–
CCn1c(=Cc2sc3c4ccccc4ccc3[n+]2CC)sc(=C2SC=C(C)N2C)c1=O [Compound 131]	120	0.05 µg/mL	6 µg/mL	–
CCn1c(=Cc2sc3ccc4ccccc4c3[n+]2CC)sc(=C2C=Cc3ccccc3N2C)c1=O [Compound 163]	667	0.03 µg/mL	20 µg/mL	–
CCn1c(=Cc2sc3ccc4ccccc4c3[n+]2CC)sc(=C2Oc3ccc(Cl)cc3N2C)c1=O [Compound 209]	–	–	–	Selectivity [3]: 200; IC50 [3, 8]: 0.1 µg/mL; IC50 ([2]; CV-1, 24 h, Table V): 20 µg/mL; IC50 ([2]; CV-1, 24 h, Table VII): 20 µg/mL; Selectivity [4]: 100; IC50 ([4]; Homo sapiens, LOX, 24 h, Table V, human melanoma, 24 hours treatment): 0.2 µg/mL
CCn1c(=Cc2scc[n+]2CC)sc(=C2Oc3ccc(-c4ccccc4)cc3N2C)c1=O [Compound 210]	100	0.1 µg/mL	10 µg/mL	Selectivity [3]: 111; IC50 [3, 8]: 0.09 µg/mL; Selectivity [5]: 100; IC50 [5]: 0.1 µg/mL; IC50 ([2]; CV-1, 24 h, Table IV): 10 µg/mL; IC50 ([2]; CV-1, 24 h, Table VII): 10 µg/mL
CCn1c(=Cc2sc3ccc4ccccc4c3[n+]2CC)sc(=C2Sc3ccc(Cl)cc3N2C)c1=O [Compound 223]	200	0.1 µg/mL	20 µg/mL	–
CCn1c(=Cc2oc3cc4ccccc4cc3[n+]2CC)sc(=C2Sc3c(ccc4ccccc34)N2C)c1=O [Compound 237]	–	–	–	Selectivity [3]: 267; IC50 [3, 8]: 0.03 µg/mL; IC50 ([2]; CV-1, 24 h, Table VII): 8 µg/mL
CCn1c(=Cc2sc3ccc4ccccc4c3[n+]2CC)sc(=C2Sc3c(ccc4ccccc34)N2C)c1=O [Compound 255]	100	0.05 µg/mL	5 µg/mL	–
CCn1c(=Cc2sc3ccc4ccccc4c3[n+]2CC)sc(=C2Sc3ccc(C(F)(F)F)cc3N2C)c1=O [Compound 307]	120	0.05 µg/mL	6 µg/mL	–
CCn1c(=CC2=[N+](CC)C(C)CS2)sc(=C2Sc3ccc4ccccc4c3N2C)c1=O (stereo not drawn) [Compound 309]	400	0.01 µg/mL	4 µg/mL	–
CC[n+]1c(C=c2sc(=C3Sc4ccc5ccccc5c4N3C)c(=O)n2CC(=O)OC)sc2c3ccccc3ccc21 [Compound 311]	667	0.03 µg/mL	20 µg/mL	Selectivity [5]: 400; IC50 [5]: 0.05 µg/mL; IC50 ([2]; CV-1, 24 h, Table IV): 20 µg/mL
CC[N+]1=C(C=c2sc(=C3Oc4ccc5ccccc5c4N3C)c(=O)n2Cc2ccccc2)SCC1 [Compound 314]	200	0.05 µg/mL	10 µg/mL	–
C=CCn1c(=Cc2oc3ccc4ccccc4c3[n+]2C)sc(=C2Oc3c(ccc4ccccc34)N2C)c1=O [Compound 319]	–	–	–	Selectivity [5]: 300; IC50 [5]: 0.02 µg/mL; IC50 ([2]; CV-1, 24 h, Table IV): 6 µg/mL
CCn1c(=Cc2ccc3ccccc3[n+]2CC)sc(=C2Sc3ccccc3N2C)c1=O [Compound 341]	–	–	–	Selectivity [3]: 200; CRL-1420(IC50) [3, 8]: 0.03 µg/mL; CV-1 (IC50) ([2]; Table V): 6 µg/mL; CV-1 (IC50) ([2]; Table VII): 6 µg/mL; Selectivity [4]: 200; LOX(IC50) ([4]; Table V, human melanoma, 24 hours treatment): 0.03 µg/mL
